From ChEMBL document CHEMBL1152883, “1-Amido-1-phenyl-3-piperidinylbutanes--CCR5 antagonists for the treatment of HIV: part 2” (Bioorg Med Chem Lett, 2009)

Legend:
[1] = Lipophilicity, log D at pH 7.4; assay type: physicochemical; conditions: buffer
[2] = (§1) Metabolic stability in human liver microsomes assessed as clearance measured per mg of protein; assay type: ADME, Microsome; conditions: liver microsomes
[3] = test system: Human immunodeficiency virus 1; experiment: Antiviral activity against HIV1 BAL assessed as inhibition of viral replication; assay type: functional; conditions: Human immunodeficiency virus 1, BAL
[4] = Clearance in iv dosed Sprague-Dawley rat; assay type: ADME, organism-based; conditions: in vivo
[5] = Volume of distribution in iv dosed Sprague-Dawley rat; assay type: ADME, organism-based; conditions: in vivo
[6] = Half life in iv dosed Sprague-Dawley rat; assay type: ADME, organism-based; conditions: in vivo
[7] = Oral bioavailability in Sprague-Dawley rat; assay type: ADME, organism-based; conditions: in vivo
Liver microsomes = experiment: as §1; assay type: ADME, Microsome; conditions: microsomes
[8] = Apparent permeability from apical to basolateral side of human Caco-2 cells; assay type: ADME, cell-based; conditions: read-out: permeability
[9] = Apparent permeability from basolateral to apical side of human Caco-2 cells; assay type: ADME, cell-based; conditions: read-out: permeability

| SMILES | logD ([1]; read-out: logD) | microsomal CLint [2] | other results |
| --- | --- | --- | --- |
| Cc1nnc(C(C)C)n1C1CCN(C(C)C[C@H](NC(=O)N2CCOCC2)c2ccccc2)CC1 (mixture of isomers) |  | < 8 µL/min/mg |  |
| Cc1nnc(C(C)C)n1C1CCN([C@@H](C)C[C@H](NC(=O)C2CCC(F)(F)CC2)c2ccccc2)CC1 | 2.2 | < 7 µL/min/mg |  |
| Cc1nnc(C(C)C)n1C1CCN(C(C)C[C@H](NC(=O)C2CC(F)(F)C2)c2ccccc2)CC1 (mixture of isomers; form 1) |  |  | logD [1]: 2; CL (Liver microsomes): < 7 µL/min/mg |
| Cc1nnc(C(C)C)n1[C@H]1C[C@H]2CC[C@@H](C1)N2CC[C@H](NC(=O)C1CCC(F)(F)CC1)c1ccccc1 [MARAVIROC] |  |  | IC90 [3]: 2.8 nM |
| CC(=O)N1CCC(C(=O)N[C@@H](CC(C)N2CCC(n3c(C)nnc3C(C)C)CC2)c2ccccc2)CC1 (mixture of isomers) |  | < 8 µL/min/mg |  |
| Cc1nnc(C(C)C)n1C1CCN(C(C)C[C@H](NC(=O)C2CCS(=O)(=O)CC2)c2ccccc2)CC1 (mixture of isomers) | 0.5 |  |  |
| Cc1nnc(C(C)C)n1C1CCN(C(C)C[C@H](NC(=O)C2CCC(F)(F)CC2)c2ccccc2)CC1.Cl (mixture of isomers; form 2) |  | 16 µL/min/mg | logD [1]: 2 |
| Cc1nnc(C(C)C)n1[C@@H]1C[C@H]2CC[C@@H](C1)N2CC[C@H](NC(=O)C1CCC(F)(F)CC1)c1ccccc1 [MARAVIROC] | 1.9 | 20 µL/min/mg | Papp A→B [8]: 1 ×10⁻⁶ cm/s; Papp B→A [9]: 10 ×10⁻⁶ cm/s; clearance [4]: 74 mL/min/kg; Vd [5]: 6.5 L/kg; half-life [6]: 0.9 h |
| Cc1nnc(C(C)C)n1C1CCN(C(C)C[C@H](NC(=O)C2CCCCC2)c2ccccc2)CC1 (mixture of isomers) | 2.5 | 139 µL/min/mg |  |
| Cc1nnc(C(C)C)n1C1CCN(C(C)C[C@H](NC(=O)C2CCOCC2)c2ccccc2)CC1 (mixture of isomers) |  | 10.8 µL/min/mg |  |
| Cc1nnc(C(C)C)n1C1CCN(C(C)C[C@H](NC(=O)COCC(F)(F)F)c2ccccc2)CC1 (mixture of isomers) |  | 61.6 µL/min/mg |  |
| Cc1nc(C(C)C)n([C@@H]2C[C@H]3CC[C@@H](C2)N3CC[C@H](NC(=O)C2CCC(F)(F)CC2)c2ccccc2)n1 | 2.7 | 6 µL/min/mg | Papp A→B [8]: 11 ×10⁻⁶ cm/s; Papp B→A [9]: 26 ×10⁻⁶ cm/s |
| Cc1nnc(C(C)C)n1C1CCN(C(C)C[C@H](NC(=O)C2CCC(F)(F)CC2)c2ccccc2)CC1 (mixture of isomers; form 1) | 2 |  | CL (Liver microsomes): 19 µL/min/mg |

Now from value to compound, other results behind:

| logD ([1]; read-out: logD) | microsomal CLint [2] | SMILES | other results |
| --- | --- | --- | --- |
| 1.5 | < 7 µL/min/mg | COC(=O)N[C@@H](CC(C)N1CCC(n2c(C)nnc2C(C)C)CC1)c1ccccc1 (mixture of isomers) |  |
| 2.2 | 12 µL/min/mg | Cc1nnc(C(C)C)n1C1CCN([C@H](C)C[C@H](NC(=O)C2CC(F)(F)C2)c2ccccc2)CC1 | IC90 [3]: 1.8 nM; clearance [4]: 92 mL/min/kg; Vd [5]: 10 L/kg; half-life [6]: 1.3 h; bioavailability [7]: 6% |
| 1.9 |  | Cc1nnc(C(C)C)n1C1CCN(C(C)C[C@H](NC(=O)CC2CC2)c2ccccc2)CC1 (mixture of isomers) |  |
| 1.9 | < 7 µL/min/mg | Cc1nnc(C(C)C)n1C1CCN(C(C)C[C@H](NC(=O)C2CC(F)(F)C2)c2ccccc2)CC1 (mixture of isomers; form 2) |  |
|  | < 8 µL/min/mg | Cc1nnc(C(C)C)n1C1CCN(C(C)C[C@H](NC(=O)C(C)C)c2ccccc2)CC1 (mixture of isomers) |  |
|  | < 8 µL/min/mg | CC(=O)N[C@@H](CC(C)N1CCC(n2c(C)nnc2C(C)C)CC1)c1ccccc1 (mixture of isomers) |  |
|  | < 8 µL/min/mg | Cc1nnc(C(C)C)n1C1CCN(C(C)C[C@H](NC(=O)C2CC2)c2ccccc2)CC1 (mixture of isomers) |  |
|  | 11.4 µL/min/mg | Cc1nnc(C(C)C)n1C1CCN(C(C)C[C@H](NC(=O)CC(F)(F)F)c2ccccc2)CC1 (mixture of isomers) |  |
